Values after ≈ are worked out from the molar mass of the structure shown. A value given as a limit tells only on which side of the number the result lay.

From ChEMBL document CHEMBL1154730, “Novel quinolines and pyrimido[4,5-b]quinolines bearing biologically active sulfonamide moiety as a new class of antitumor agents” (Eur J Med Chem, 2010) come the findings set out here.

Assay [1] is described as follows: Cytotoxicity against mouse EAC cells assessed as non-viable cells at 100 ug/ml after 2 hrs by trypan blue exclusion. The format is functional, Ehrlich.
Assay [2] is described as follows: Cytotoxicity against mouse EAC cells assessed as non-viable cells at 50 ug/ml after 2 hrs by trypan blue exclusion. In kind it is functional, Ehrlich.
Assay [3] is described as follows: Cytotoxicity against mouse EAC cells assessed as non-viable cells at 25 ug/ml after 2 hrs by trypan blue exclusion. The format is functional, Ehrlich.
Assay [4] is described as follows: Cytotoxicity against mouse EAC cells assessed as non-viable cells at 10 ug/ml after 2 hrs by trypan blue exclusion. In kind it is functional, Ehrlich.
Assay [5] can be described thus: Cytotoxicity against mouse EAC cells after 2 hrs by trypan blue exclusion. In kind it is functional, cell-based. The settings on record: ehrlich.

A word on the IC50: it is the concentration that gives 50% inhibition. As for `Nc1nc(=S)[nH]c2c1C(c1ccc(Cl)cc1Cl)C1=C(CCCC1=O)N2c1ccc(S(N)(=O)=O)cc1` (stereo not given), the Activity in assay [1] is 100%; in assay [2], 100%; in assay [3] it was 50%; in assay [4], 30%. In assay [5], this compound had a 50% inhibitory concentration (IC50) of 25 µg/mL (≈ 45.6 µM).
In the case of `N#CC1=C(NC(=S)Nc2ccccc2)N(c2ccc(S(N)(=O)=O)cc2)C2=C(C(=O)CCC2)C1c1ccc(Cl)cc1Cl` (stereo not given), the Activity in assay [1] stood at 95%; in assay [2] it was 55%; in assay [3], 50%; in assay [4], 40%. The same compound came in with a half-inhibitory concentration (IC50) in assay [5] of 25 µg/mL (≈ 40 µM).
Taken in the same sequence, the figures for `N#CC1=C(NC(=S)Nc2ccc(Cl)cc2)N(c2ccc(S(N)(=O)=O)cc2)C2=C(C(=O)CCC2)C1c1ccc(Cl)cc1Cl` (stereo not given) were 100%, 100%, 60%, 30% and 40 µg/mL (≈ 60.7 µM).
For the compound `N=c1c2c([nH]c(=S)n1-c1ccccc1)N(c1ccc(S(N)(=O)=O)cc1)C1=C(C(=O)CCC1)C2c1ccc(Cl)cc1Cl` (stereo not given), the Activity is 60% in assay [1], 50% in assay [2], 30% in assay [3] and 10% in assay [4]. This compound also showed a half-inhibitory concentration (IC50) in assay [5] of 50 µg/mL (≈ 80.1 µM).
As for `N=c1c2c([nH]c(=S)n1-c1ccc(Br)cc1)N(c1ccc(S(N)(=O)=O)cc1)C1=C(C(=O)CCC1)C2c1ccc(Cl)cc1Cl` (stereo not given), the Activity in assay [1] stood at 70%; in assay [2], 50%; in assay [3], 30%; in assay [4], 30%. The compound further registered an IC50 in assay [5] of 50 µg/mL (≈ 71.1 µM).
As for `NS(=O)(=O)c1ccc(N2C3=C(C(=O)CCC3)C(c3ccc(Cl)cc3Cl)c3c2[nH]c(=S)[nH]c3=S)cc1` (stereo not given), the Activity was determined as 57% in assay [1], 39% in assay [2], 30% in assay [3] and 11% in assay [4]. In assay [5], this compound yielded a 50% inhibitory concentration (IC50) above 100 µg/mL.
Taken in the same sequence, the figures for `N#CC1=C(NC(=O)CCC(=O)O)N(c2ccc(S(N)(=O)=O)cc2)C2=C(C(=O)CCC2)C1c1ccc(Cl)cc1Cl` (stereo not given) were 60%, 50%, 35%, 20% and 50 µg/mL (≈ 84.8 µM).
For `CCCCNC(=S)NC1=C(C#N)C(c2ccc(Cl)cc2Cl)C2=C(CCCC2=O)N1c1ccc(S(N)(=O)=O)cc1` (stereo not given), the Activity in assay [1] is 40%; in assay [2], 35%; in assay [3], 30%; in assay [4], 30%. Besides, the IC50 in assay [5] was above 100 µg/mL.
For `Nc1nc(=O)[nH]c2c1C(c1ccc(Cl)cc1Cl)C1=C(CCCC1=O)N2c1ccc(S(N)(=O)=O)cc1` (stereo not given), the Activity in assay [1] came out at 100%; in assay [2], 90%; in assay [3] it was 80%; in assay [4], 80%. This compound also had a 50% inhibitory concentration (IC50) in assay [5] of 6.9 µg/mL (≈ 13 µM).
`C=CCn1c(=S)[nH]c2c(c1=N)C(c1ccc(Cl)cc1Cl)C1=C(CCCC1=O)N2c1ccc(S(N)(=O)=O)cc1` (stereo not given): the Activity amounted to 75% in assay [1], 50% in assay [2], 40% in assay [3] and 30% in assay [4]. Also, the IC50 in assay [5] was found to be 50 µg/mL (≈ 85 µM).
The matching figures for `C=CCNC(=S)NC1=C(C#N)C(c2ccc(Cl)cc2Cl)C2=C(CCCC2=O)N1c1ccc(S(N)(=O)=O)cc1` (stereo not given): 40%, 33%, 30%, 10% and above 100 µg/mL.
The matching figures for `CCCCn1c(=S)[nH]c2c(c1=N)C(c1ccc(Cl)cc1Cl)C1=C(CCCC1=O)N2c1ccc(S(N)(=O)=O)cc1` (stereo not given): 80%, 80%, 70%, 70% and 7 µg/mL (≈ 11.6 µM).
The matching figures for `N#CC1=C(N)N(c2ccc(S(N)(=O)=O)cc2)C2=C(C(=O)CCC2)C1c1ccc(Cl)cc1Cl` (stereo not given): 95%, 65%, 50%, 40% and 25 µg/mL (≈ 51.1 µM).
With `N#CC1=C(N2C(=O)CCC2=O)N(c2ccc(S(N)(=O)=O)cc2)C2=C(C(=O)CCC2)C1c1ccc(Cl)cc1Cl` (stereo not given), the Activity is recorded as 90% in assay [1], 70% in assay [2], 50% in assay [3] and 20% in assay [4]. The same compound had an IC50 in assay [5] of 25 µg/mL (≈ 43.7 µM).
Taken in the same sequence, the figures for `N#CC1=C(NC(N)=O)N(c2ccc(S(N)(=O)=O)cc2)C2=C(C(=O)CCC2)C1c1ccc(Cl)cc1Cl` (stereo not given) were 60%, 40%, 35%, 20% and 75 µg/mL (≈ 141 µM).
The matching figures for `N#CC1=C(NC(=S)Nc2ccc(Br)cc2)N(c2ccc(S(N)(=O)=O)cc2)C2=C(C(=O)CCC2)C1c1ccc(Cl)cc1Cl` (stereo not given): 90%, 90%, 50%, 50% and 25 µg/mL (≈ 35.5 µM).
Taken in the same sequence, the figures for `N#CC1=C(NS(=O)(=O)c2ccc([N+](=O)[O-])cc2)N(c2ccc(S(N)(=O)=O)cc2)C2=C(C(=O)CCC2)C1c1ccc(Cl)cc1Cl` (stereo not given) were 90%, 85%, 85%, 50% and 20 µg/mL (≈ 29.6 µM).
With `N#CC1=C(NS(=O)(=O)c2ccc(Br)cc2)N(c2ccc(S(N)(=O)=O)cc2)C2=C(C(=O)CCC2)C1c1ccc(Cl)cc1Cl` (stereo not given), the Activity in assay [1] was found to be 100%; in assay [2] it was 90%; in assay [3] it was 90%; in assay [4], 90%. Moreover, the IC50 in assay [5] came to 5.5 µg/mL (≈ 7.76 µM).
In the case of `N=c1c2c([nH]c(=S)n1-c1ccc(Cl)cc1)N(c1ccc(S(N)(=O)=O)cc1)C1=C(C(=O)CCC1)C2c1ccc(Cl)cc1Cl` (stereo not given), the Activity was 95% in assay [1], 90% in assay [2], 60% in assay [3] and 50% in assay [4]. The same compound gave an IC50 in assay [5] of 10 µg/mL (≈ 15.2 µM).
Taken in the same sequence, the figures for `COc1cccc2c1C(=O)c1c(O)c3c(c(O)c1C2=O)C[C@@](O)(C(=O)CO)C[C@@H]3O[C@H]1C[C@H](N)[C@H](O)[C@H](C)O1` [DOXORUBICIN] were 100%, 68%, 32%, 19% and 38 µg/mL (≈ 69.9 µM).
